Data published in publication PMC8246065 (The EMBO Journal, 2021).

Test system: HeLa inducible NOD1 or NOD2 cells
Assay: ELISA of IL6/IL8 in supernatants of HeLa inducible NOD1 or NOD2 cells
Format: cell-based, human
Conditions: Dynasore 50 µM
Method: To differentiate THP‐1 into macrophage‐like cells, THP‐1 cells were stimulated with 50 ng/ml phorbol 12‐myristate 13‐acetate (Sigma‐Aldrich, P8139) for 24 h and then incubated with fresh medium for another 48 h. […] To induce NOD1 or NOD2 expression, HeLa NOD1 or NOD2 cells were treated with 0.5 µg/ml or 0.25 µg/ml doxycycline for at least 16 h, respectively. All cells have been checked for mycoplasma contamination regularly. Bone marrow‐derived macrophages (BMDMs) were obtained from tibial and femural bones and generated with DMEM containing 20% L929 cell supernatant, 10% FBS, 5% heat‐inactivated horse serum, 1 mM sodium pyruvate, and 2 mM L‐glutamine. For BMDM stimulation experiments, BMDMs were treated with IFN‐γ (20 ng/ml) overnight before stimulation.

Molecule | Effect of endocytosis inhibition on IL6 production in response to stress stimulations
O=C(N/N=C/c1ccc(O)c(O)c1)c1cc2ccccc2cc1O [Dynasore] | not blocked

Same assay, conditions: Dynasore 50 µM, Fig EV1D,E (S2B-S2E in rebuttal)

Molecule | IL6 production in the presence of dynasore
CCCCC[C@H](CC(=O)NO)C(=O)N[C@H](C(=O)N1CCC[C@H]1CO)C(C)C [actinonin] | higher IL6 production
C=C1[C@@H](C)[C@H]2[C@H](Cc3ccccc3)NC(=O)[C@]23[C@H](OC(C)=O)/C=C/[C@@](C)(O)C(=O)[C@@H](C)C/C=C/[C@H]3[C@@H]1O [cytochalasin D] | higher IL6 production
COC(=O)Nc1nc2ccc(C(=O)c3cccs3)cc2[nH]1 [nocodazole] | higher IL6 production
CC(=O)O[C@H]1C(=O)[C@@]2(C)[C@H]([C@H](OC(=O)c3ccccc3)[C@]3(O)C[C@H](OC(=O)[C@H](O)[C@@H](NC(=O)c4ccccc4)c4ccccc4)C(C)=C1C3(C)C)[C@]1(OC(C)=O)CO[C@@H]1C[C@@H]2O [paclitaxel] | higher IL6 production

Same assay, conditions: Fig 1A-1D

Molecule | IL6 production upon stressor stimulation
C[C@H]1CCC/C=C/[C@@H]2C[C@H](O)C[C@H]2[C@H](O)/C=C/C(=O)O1 [BFA, brefeldin A] | did not induce IL6 production
CC[C@@]1([C@@H]2O[C@@H]([C@H]3O[C@@](O)(CO)[C@H](C)C[C@@H]3C)C[C@@H]2C)CC[C@H]([C@]2(C)CC[C@]3(C[C@H](O)[C@@H](C)[C@@H]([C@@H](C)[C@@H](OC)[C@H](C)C(=O)O)O3)O2)O1 [monensin] | did not induce IL6 production

Same assay, conditions: inhibitor pretreatment, S1P 10 µM with digitonin (5 µg/ml), Appendix Fig S3A-D

Molecule | Effect of inhibitor on IL6 production by cytosolic S1P
Cc1cc(CN)cc(C)c1NC(=O)c1ccc(-c2cc(Cl)ccc2Cl)o1 [CYM50358] | failed to block
CCCCCCCCc1ccc(CCC(N)(CO)CO)cc1 [FTY720] | failed to block
CC(C)(C)S(=O)(=O)c1ccc2nccc(Nc3n[nH]c4ccc(F)cc34)c2c1 [GSK583] | abolished
Cc1nn(C)c2nc(NNC(=O)Nc3c(Cl)cncc3Cl)cc(C(C)C)c12 [JTE013] | failed to block
CC(=O)c1ncc([C@@H](O)[C@H](O)[C@H](O)CO)[nH]1 [THI] | higher IL6 production
CCCCCCCCc1cccc(NC(=O)[C@H](N)COP(=O)(O)O)c1 [VPC23019] | failed to block
CCCCCCc1cccc(NC(=O)[C@H](N)CCP(=O)(O)O)c1 [W146] | failed to block
pertussis toxin | failed to block

Same assay, conditions: lipid 10 µM, Appendix Fig S3E,F

Molecule | IL6 production
CCCCCCCCCCCCC/C=C/[C@@H](O)[C@H](CO)NC(C)=O [C2 ceramide] | did not induce IL6 production
CCCCCCCCCCCCC/C=C/[C@@H](O)[C@@H](N)CO [sphingosine] | did not induce IL6 production
